Results from patent US9829481B2, “Senescence tracers” (Eberhard Karls Universitaet Tuebingen Medizinische Fakultaet, priority 2012, dated 2017).

Tests used:
Assay type in all cases: cell-based
[1] = test system: MCF7 cells (breast cancer cell line); test: Lysosome staining with LysoTracker; settings: presence vs absence of Doxorubicin
From the text: (§1) FIG. 3: Graph of staining signals obtained for HCT116 and MCF7 cells stained with LysoTracker® both in the presence and absence of Doxorubicin.

[2] = test system: HCT116 cells (colorectal carcinoma cell line); test: Lysosome staining with LysoTracker; settings: presence vs absence of Doxorubicin
From the text: as §1

[3] = test system: MCF7 cells (breast cancer cell line); test: Senescence β-galactosidase staining, light microscopy; settings: 250 nM Doxorubicin for 24 hours
Protocol: FIG. 2: Light microscope pictures of β-gal-stained HCT116 and MCF7 cells with and with out 250 nM Doxorubicin treatment.
To stimulate HCT116 (colorectal carcinoma cell line) cells and MCF7 (breast cancer cell line) cells for senescence β-galactosidase staining, the cells were treated with 250nM Doxorubicin for 24 hours. Doxorubicin interacts with DNA by intercalation and inhibits the progression of the enzyme topoisonerase II.

[4] = test system: MCF7 cells (breast cancer cell line); test: FACS analysis of labelling of senescent (Doxorubicin-treated) cells; settings: with vs without 250 nM Doxorubicin, labeled with 40 ng/ml compound, 20 min, 37° C., 5% CO2
Protocol: (§2) FIG. 1: FACS-analysis data of the compound of Example 5 in HCT116 cells (colorectal carcinoma cell line) and MCF7 cells (breast cancer cell line) with and with out 250 nM Doxorubicin treatment.
(§3) MCF7 cells with (senescence +) and without 250 nM Doxorubicin treatment. The cells were incubated 20 min in 37° C. with 5% CO2.
(§4) To show the capability of the compounds of the invention to mark and visualise senescent cells, HCT116 cells (colorectal carcinoma cell line) and MCF7 cells (breast cancer cell line) were incubated 20 min at 37° C. with 5% CO2 in the presence and absence of Doxorubicin. The cells were then labeled with 40 ng/ml of the compound of Example 5.
(§5) To show the capability of the compounds of the invention to mark and visualise senescent cells, HCT116 cells (colorectal carcinoma cell line) and MCF7 cells (breast cancer cell line) were incubated 20 min in 37° C. with 5% CO2. The cells were then labeled with 40 ng/ml of the compound of Example 2.

[5] = test system: HCT116 cells (colorectal carcinoma cell line); test: as above; settings: with vs without 250 nM Doxorubicin, labeled with 40 ng/ml compound, 20 min, 37° C., 5% CO2
Protocol: as §2, §3, §4, §5

COc1cccc2c1C(=O)c1c(O)c3c(c(O)c1C2=O)C[C@@](O)(C(=O)CO)C[C@@H]3O[C@H]1C[C@H](N)[C@H](O)[C@H](C)O1 [Doxorubicin]
lysosome staining signal compared to untreated cells [1]: enhanced positive lysosome staining | lysosome staining signal compared to untreated cells [2]: enhanced positive lysosome staining | β-gal expression (senescence staining) [3]: strong expression of β-gal

CN(C)c1cccc2c(S(=O)(=O)NCCNc3ccnc4cc(Cl)ccc34)cccc12 [Example 2]
enrichment of the labeled compound in Doxorubicin-treated (senescent) cells (FACS) [4]: enhanced enrichment | enrichment of the labeled compound in Doxorubicin-treated (senescent) cells (FACS) [5]: enhanced enrichment

CCN(CC)c1ccc2nc3c4cc(OCCCS[C@H]5O[C@@H](C)[C@@H](O)[C@@H](O)[C@@H]5O)ccc4c(=O)cc-3oc2c1 [Example 5]
enrichment of the labeled compound in Doxorubicin-treated (senescent) cells (FACS) [4]: enhanced enrichment
